{"source": "ChEMBL document CHEMBL5390264", "about": "“Exploring Fatty Acid Mimetics as NR4A Ligands” (J Med Chem, 2023)", "key": {"[1]": {"molecular_target": "Nuclear receptor subfamily 4immunitygroup A member 1 (Homo sapiens, UniProt P22736)", "sequence (P22736 whole entry, the tested form may be a part)": "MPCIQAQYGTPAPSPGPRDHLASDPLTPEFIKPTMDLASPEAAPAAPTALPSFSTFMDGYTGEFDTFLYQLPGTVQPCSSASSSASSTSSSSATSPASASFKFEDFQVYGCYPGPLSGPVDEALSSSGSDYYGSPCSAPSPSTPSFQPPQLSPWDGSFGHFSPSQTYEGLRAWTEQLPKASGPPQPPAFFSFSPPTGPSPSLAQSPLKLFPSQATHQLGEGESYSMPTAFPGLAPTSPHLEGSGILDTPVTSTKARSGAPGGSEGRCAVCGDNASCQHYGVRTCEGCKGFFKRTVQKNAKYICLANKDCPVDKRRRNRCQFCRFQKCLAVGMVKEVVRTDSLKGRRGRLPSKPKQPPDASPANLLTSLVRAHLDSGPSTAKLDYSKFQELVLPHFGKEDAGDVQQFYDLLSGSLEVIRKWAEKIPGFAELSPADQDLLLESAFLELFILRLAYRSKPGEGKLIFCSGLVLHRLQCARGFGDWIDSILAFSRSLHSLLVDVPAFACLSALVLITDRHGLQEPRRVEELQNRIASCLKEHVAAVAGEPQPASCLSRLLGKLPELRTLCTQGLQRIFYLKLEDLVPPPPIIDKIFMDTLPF", "assay": "Agonist activity at human Nur77 LBD transiently transfected in HEK293T cells assessed as maximal activation incubated for 16 hrs by Gal4-hybrid reporter gene based Dual-glo luciferase assay relative to control", "format": "cell-based", "details": "filed as agonist"}, "[2]": {"molecular_target": "Nuclear receptor subfamily 4 group A member 3 (Homo sapiens, UniProt Q92570)", "sequence (Q92570 whole entry, the tested form may be a part)": "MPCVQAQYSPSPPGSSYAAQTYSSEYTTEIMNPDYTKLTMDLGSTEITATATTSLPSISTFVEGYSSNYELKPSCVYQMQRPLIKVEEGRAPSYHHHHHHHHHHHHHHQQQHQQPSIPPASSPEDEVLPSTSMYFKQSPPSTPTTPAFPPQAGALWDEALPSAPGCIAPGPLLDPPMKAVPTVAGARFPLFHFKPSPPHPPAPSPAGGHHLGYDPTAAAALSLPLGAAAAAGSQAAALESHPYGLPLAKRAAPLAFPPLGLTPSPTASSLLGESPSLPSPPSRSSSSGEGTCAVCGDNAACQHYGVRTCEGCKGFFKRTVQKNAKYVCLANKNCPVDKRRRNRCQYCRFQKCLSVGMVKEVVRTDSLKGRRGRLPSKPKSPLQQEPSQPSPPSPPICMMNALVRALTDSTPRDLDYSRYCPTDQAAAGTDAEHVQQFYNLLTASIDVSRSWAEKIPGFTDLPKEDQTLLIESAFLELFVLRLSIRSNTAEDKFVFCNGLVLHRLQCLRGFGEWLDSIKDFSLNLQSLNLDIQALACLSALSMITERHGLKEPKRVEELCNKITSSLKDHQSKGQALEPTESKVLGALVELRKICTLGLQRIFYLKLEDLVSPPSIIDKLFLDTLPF", "assay": "Agonist activity at human NOR-1 LBD transiently transfected in HEK293T cells incubated for 16 hrs by Gal4-hybrid reporter gene based Dual-glo luciferase assay", "format": "cell-based"}, "[3]": {"molecular_target": "T1, Thyroid hormone receptor alpha (Homo sapiens) (UniProt P10827)", "T1 sequence (whole entry)": "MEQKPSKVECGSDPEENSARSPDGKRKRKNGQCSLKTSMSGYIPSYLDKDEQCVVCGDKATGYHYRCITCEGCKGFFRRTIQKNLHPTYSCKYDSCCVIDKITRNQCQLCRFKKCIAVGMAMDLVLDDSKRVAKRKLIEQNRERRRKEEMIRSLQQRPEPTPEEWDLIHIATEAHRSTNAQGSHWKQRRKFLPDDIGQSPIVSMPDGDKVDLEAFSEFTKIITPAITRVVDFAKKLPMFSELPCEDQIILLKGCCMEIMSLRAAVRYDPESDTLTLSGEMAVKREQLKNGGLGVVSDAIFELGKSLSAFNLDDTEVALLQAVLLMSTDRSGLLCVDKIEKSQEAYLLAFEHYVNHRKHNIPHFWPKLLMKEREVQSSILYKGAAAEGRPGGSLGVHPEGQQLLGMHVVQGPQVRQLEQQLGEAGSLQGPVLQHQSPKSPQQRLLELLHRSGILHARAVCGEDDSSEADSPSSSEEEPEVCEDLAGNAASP", "assay": "Agonist activity at THRalpha LBD (unknown origin) transiently transfected in HEK293T cells at 1 uM incubated for 16 hrs by Gal4-hybrid reporter gene based Dual-glo luciferase assay", "format": "cell-based"}, "[4]": {"assay": "Selectivity ratio for agonist activity at PPARalpha LBD (unknown origin) transiently transfected in HEK293T cells to agonist activity at human Nur77 LBD transiently transfected in HEK293T cells", "format": "cell-based"}, "[5]": {"assay": "Selectivity ratio for agonist activity at PPARgamma LBD (unknown origin) transiently transfected in HEK293T cells to agonist activity at human Nur77 LBD transiently transfected in HEK293T cells", "format": "cell-based"}, "[6]": {"assay": "Selectivity ratio for agonist activity at VDR LBD (unknown origin) transiently transfected in HEK293T cells to agonist activity at human Nur77 LBD transiently transfected in HEK293T cells", "format": "cell-based"}, "[7]": {"assay": "Selectivity ratio for agonist activity at FXR LBD (unknown origin) transiently transfected in HEK293T cells to agonist activity at human Nur77 LBD transiently transfected in HEK293T cells", "format": "cell-based"}, "[8]": {"assay": "Selectivity ratio for agonist activity at THRalpha LBD (unknown origin) transiently transfected in HEK293T cells to agonist activity at human Nurr1 LBD transiently transfected in HEK293T cells", "format": "cell-based"}, "[9]": {"assay": "Selectivity ratio for agonist activity at RARalpha LBD (unknown origin) transiently transfected in HEK293T cells to agonist activity at human Nurr1 LBD transiently transfected in HEK293T cells", "format": "cell-based"}, "[10]": {"assay": "Selectivity ratio for agonist activity at PPARalpha LBD (unknown origin) transiently transfected in HEK293T cells to agonist activity at human Nurr1 LBD transiently transfected in HEK293T cells", "format": "cell-based"}, "[11]": {"assay": "Selectivity ratio for agonist activity at PPARgamma LBD (unknown origin) transiently transfected in HEK293T cells to agonist activity at human Nurr1 LBD transiently transfected in HEK293T cells", "format": "cell-based"}, "[12]": {"assay": "Selectivity ratio for agonist activity at PPARdelta LBD (unknown origin) transiently transfected in HEK293T cells to agonist activity at human Nurr1 LBD transiently transfected in HEK293T cells", "format": "cell-based"}, "[13]": {"assay": "Selectivity ratio for agonist activity at VDR LBD (unknown origin) transiently transfected in HEK293T cells to agonist activity at human Nurr1 LBD transiently transfected in HEK293T cells", "format": "cell-based"}, "[14]": {"assay": "Selectivity ratio for agonist activity at THRalpha LBD (unknown origin) transiently transfected in HEK293T cells to agonist activity at human NOR-1 LBD transiently transfected in HEK293T cells", "format": "cell-based"}, "[15]": {"assay": "Selectivity ratio for agonist activity at PPARalpha LBD (unknown origin) transiently transfected in HEK293T cells to agonist activity at human NOR-1 LBD transiently transfected in HEK293T cells", "format": "cell-based"}, "[16]": {"assay": "Selectivity ratio for agonist activity at PPARgamma LBD (unknown origin) transiently transfected in HEK293T cells to agonist activity at human NOR-1 LBD transiently transfected in HEK293T cells", "format": "cell-based"}, "[17]": {"assay": "Selectivity ratio for agonist activity at FXR LBD (unknown origin) transiently transfected in HEK293T cells to agonist activity at human NOR-1 LBD transiently transfected in HEK293T cells", "format": "cell-based"}, "[18]": {"assay": "Selectivity ratio for agonist activity at RXRalpha LBD (unknown origin) transiently transfected in HEK293T cells to agonist activity at human NOR-1 LBD transiently transfected in HEK293T cells", "format": "cell-based"}, "[19]": {"molecular_target": "T2, Nuclear receptor subfamily 4 group A member 2 (Homo sapiens, UniProt P43354)", "T2 sequence (P43354 whole entry, the tested form may be a part)": "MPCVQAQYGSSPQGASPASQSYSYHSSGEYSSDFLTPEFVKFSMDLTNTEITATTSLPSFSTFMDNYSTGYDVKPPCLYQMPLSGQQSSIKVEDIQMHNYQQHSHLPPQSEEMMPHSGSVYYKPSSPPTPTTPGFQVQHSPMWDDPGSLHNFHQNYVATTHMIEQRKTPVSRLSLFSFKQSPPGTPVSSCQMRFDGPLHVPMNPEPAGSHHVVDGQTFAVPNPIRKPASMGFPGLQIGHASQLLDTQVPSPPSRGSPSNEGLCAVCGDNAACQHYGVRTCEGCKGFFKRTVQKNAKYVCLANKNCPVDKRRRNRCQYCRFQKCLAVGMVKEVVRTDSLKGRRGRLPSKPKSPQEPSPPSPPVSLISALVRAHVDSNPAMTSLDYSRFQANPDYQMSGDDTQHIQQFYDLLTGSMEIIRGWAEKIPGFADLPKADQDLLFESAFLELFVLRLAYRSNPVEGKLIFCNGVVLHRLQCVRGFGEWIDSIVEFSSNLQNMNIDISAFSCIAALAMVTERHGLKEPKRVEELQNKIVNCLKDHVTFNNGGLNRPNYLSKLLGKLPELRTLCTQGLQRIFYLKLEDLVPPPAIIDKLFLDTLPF", "assay": "Agonist activity at full length human Nurr1 transiently transfected in HEK293T cells co-transfected with pFR-Luc-NBRE incubated for 16 hrs by Gal4-hybrid reporter gene based Dual-glo luciferase assay", "format": "cell-based"}, "[20]": {"molecular_target": "T2, Nuclear receptor subfamily 4 group A member 2", "assay": "Agonist activity at full length human Nurr1 transiently transfected in HEK293T cells co-transfected with pFR-Luc-NurRE incubated for 16 hrs by Gal4-hybrid reporter gene based Dual-glo luciferase assay", "format": "cell-based"}, "[21]": {"molecular_target": "T2, Nuclear receptor subfamily 4 group A member 2", "assay": "Agonist activity at full length human Nurr1 transiently transfected in HEK293T cells co-transfected with pFR-Luc-DR5 incubated for 16 hrs by Gal4-hybrid reporter gene based Dual-glo luciferase assay", "format": "cell-based"}, "[22]": {"molecular_target": "T2, Nuclear receptor subfamily 4 group A member 2", "details": "filed as agonist, dose 100.0 µM"}}, "note": "The source made the active and inactive calls. The rule behind the calls is not given here."}
{"molecule": "CC(C)(C)c1ccc(COc2cccc(C(=O)O)c2)cc1", "values": [{"measurement": "Emax", "setting": "[1]", "result": 163, "unit": "%"}, {"measurement": "EC50", "setting": "[2]", "result": 70, "unit": "nM"}, {"measurement": "Activity", "setting": "[3]", "result": "inactive"}, {"measurement": "Selectivity ratio", "setting": "[4]", "result": "> 30"}, {"measurement": "Selectivity ratio", "setting": "[5]", "result": "> 30"}, {"measurement": "Selectivity ratio", "setting": "[6]", "result": "> 30"}, {"measurement": "Selectivity ratio", "setting": "[7]", "result": "> 30"}, {"measurement": "Selectivity ratio", "setting": "[8]", "result": "> 30"}, {"measurement": "Selectivity ratio", "setting": "[9]", "result": "> 30"}, {"measurement": "Selectivity ratio", "setting": "[10]", "result": "> 30"}, {"measurement": "Selectivity ratio", "setting": "[11]", "result": "> 30"}, {"measurement": "Selectivity ratio", "setting": "[12]", "result": "> 30"}, {"measurement": "Selectivity ratio", "setting": "[13]", "result": "> 30"}, {"measurement": "Selectivity ratio", "setting": "[14]", "result": "> 30"}, {"measurement": "Selectivity ratio", "setting": "[15]", "result": "> 30"}, {"measurement": "Selectivity ratio", "setting": "[16]", "result": "> 30"}, {"measurement": "Selectivity ratio", "setting": "[17]", "result": "> 30"}, {"measurement": "Selectivity ratio", "setting": "[18]", "result": "> 30"}, {"measurement": "EC50", "setting": "[19]", "result": 13, "unit": "nM"}, {"measurement": "EC50", "setting": "[20]", "result": 10, "unit": "nM"}, {"measurement": "EC50", "setting": "[21]", "result": 12, "unit": "nM"}, {"measurement": "deltaH", "setting": "[22]", "result": -4, "unit": "kcal/mol"}]}
